Key:
Format in all cases: cell-based
Trichophyton = assay: Antimicrobial test of PVC test piece, fungi (growth on agar-covered piece); set-up: key: A: No growth on the test piece.; B: The grown fungi covers less than 30% of the test piece's surface area.; C: The grown fungi covers 30% or more and less than 70% of the test piece's surface area.; D: The grown fungi covers 70% or more of the test piece's surface area; conditions: soft PVC sheet; ZnPT 0.01 + test compound 0.3 parts per 100 PVC; 35° C., 1 week
Method: (§1) A mixture having the formulation described below was roll kneaded at 170° C. to prepare a sheet, which was pressed at 180° C. for 5 minutes to obtain a 0.5 mm thick soft PVC sheet. A 10 mm×10 mm test piece was cut out of the soft PVC sheet and evaluated for antimicrobial properties against bacteria (Nos. 1 to 5 in Table 1) and fungi (Nos. 6 to 8 in Table 1) in accordance with the respective methods described below.
(§2) The test piece was placed at the center of a culture dish, and a common agar medium was poured to thinly cover the test piece. The culture solution was applied to the agar medium and cultivated at 35° C. for 1 week. The growth of the fungus was observed and rated based on the following criteria.
(§3) A mixture having the formulation shown below was roll kneaded at 170° C. to prepare a sheet, which was pressed at 180° C. for 5 minutes to obtain a 0.5 mm thick semi-rigid PVC sheet. A 10 mm×10 mm test piece was cut out of the semi-rigid PVC sheet. Zinc pyrithione and a test compound were previously compounded to prepare an antimicrobial composition in a predetermined ratio to give the formulation. The test piece was tested in the same manner as in Example 1.

Brewer's yeast = assay: as above; set-up: key: A: No growth on the test piece.; B: The grown fungi covers less than 30% of the test piece's surface area.; C: The grown fungi covers 30% or more and less than 70% of the test piece's surface area.; D: The grown fungi covers 70% or more of the test piece's surface area; conditions: soft PVC sheet; ZnPT 0.01 + test compound 0.3 parts per 100 PVC; 35° C., 1 week
Method: as §1, §2, §3

Kurokawa mold = assay: as above; set-up: key: A: No growth on the test piece.; B: The grown fungi covers less than 30% of the test piece's surface area.; C: The grown fungi covers 30% or more and less than 70% of the test piece's surface area.; D: The grown fungi covers 70% or more of the test piece's surface area; conditions: soft PVC sheet; ZnPT 0.01 + test compound 0.3 parts per 100 PVC; 35° C., 1 week
Method: as §1, §2, §3

Escherichia coli = assay: Antimicrobial test of PVC test piece, bacteria (surviving cells); conditions: soft PVC sheet; ZnPT 0.01 + test compound 0.3 parts per 100 PVC; 35° C., 2 days
Method: as §1
(§4) The culture solution was applied to the test piece, and the test piece was tightly covered with polyethylene cling film. After cultivation at 35° C. for 2 days, the number of surviving cells was counted and rated based on the following criteria.
as §3

Bacillus subtilis = assay: as above; conditions: soft PVC sheet; ZnPT 0.01 + test compound 0.3 parts per 100 PVC; 35° C., 2 days
Method: as §1, §4, §3

Staphylococcus aureaus = assay: as above; conditions: soft PVC sheet; ZnPT 0.01 + test compound 0.3 parts per 100 PVC; 35° C., 2 days
Method: as §1, §4, §3

Lactobacillus = assay: as above; conditions: soft PVC sheet; ZnPT 0.01 + test compound 0.3 parts per 100 PVC; 35° C., 2 days
Method: as §1, §4, §3

MRSA = assay: as above; conditions: soft PVC sheet; ZnPT 0.01 + test compound 0.3 parts per 100 PVC; 35° C., 2 days
Method: as §1, §4, §3

Row | SMILES | Fungal growth rating, microorganism 6: Trichophyton (Trichophyton) | Fungal growth rating, microorganism 7: Brewer's yeast (Brewer's yeast) | Fungal growth rating, microorganism 8: Kurokawa mold (Kurokawa mold) | Survival rate rating, microorganism 5: Escherichia coli (Escherichia coli) | Survival rate rating, microorganism 3: Bacillus subtilis (Bacillus subtilis) | Survival rate rating, microorganism 1: Staphylococcus aureaus (Staphylococcus aureaus) | Survival rate rating, microorganism 4: Lactobacillus (Lactobacillus) | Survival rate rating, microorganism 2: MRSA (MRSA)
1 | Cc1cc2c(c(C(C)(C)C)c1)OP(=O)([O-])Oc1c(cc(C)cc1C(C)(C)C)C2.[Na+] [No. 6] | A | A | A | A (The survival rate is less than 0.1%.) | A (The survival rate is less than 0.1%.) | A (The survival rate is less than 0.1%.) | A (The survival rate is less than 0.1%.) | A (The survival rate is less than 0.1%.)
2 | CC1c2cc(C(C)(C)C)cc(C(C)(C)C)c2OP(=O)([O-])Oc2c1cc(C(C)(C)C)cc2C(C)(C)C.[Na+] (stereo not drawn) [No. 7] | A | A | A | A (The survival rate is less than 0.1%.) | A (The survival rate is less than 0.1%.) | A (The survival rate is less than 0.1%.) | A (The survival rate is less than 0.1%.) | A (The survival rate is less than 0.1%.)
3 | Cc1c(C(C)(C)C)cc(C(C)(C)C)c2c1C(C)c1c(C)c(C(C)(C)C)cc(C(C)(C)C)c1OP(=O)([O-])O2.[Na+] (stereo not drawn) [No. 8] | A | A | A | A (The survival rate is less than 0.1%.) | A (The survival rate is less than 0.1%.) | A (The survival rate is less than 0.1%.) | A (The survival rate is less than 0.1%.) | A (The survival rate is less than 0.1%.)
